Patent publication US20100286101A1, “PHARMACEUTICAL COMPOSITION INCLUDING A CORTICOSTEROID AND A VITAMIN D ANALOG HAVING IMPROVED STABILITY” (priority 2009, published 2010)

Test: Solvent attributes (dipolar, H-bonding, miscibility in mineral oil)
Type: physicochemical

Molecule: CC(O)CO (stereo not drawn) [Propylene Glycol]
- Dipolar: Yes
- H-bonding: Yes
- Miscibility in oil (mineral oil): No

Molecule: Polysorbate 80
- Dipolar: Yes
- H-bonding: Yes
- Miscibility in oil (mineral oil): No

Molecule: Sorbitan Sesquioleate
- Dipolar: Yes
- H-bonding: Yes
- Miscibility in oil (mineral oil): Yes
